Experimental data reported in patent publication US9844546B2, “Antibody against human HIF hydroxylase” (OXFORD UNIVERSITY INNOVATION LIMITED, priority 2001, dated 2017).

Key:
[1] = test system: HIF hydroxylase (HPH activity); test: HIF hydroxylase (HPH) inhibition, statements of the description; format: biochemical
[2] = test system: HIF-α prolyl-hydroxylase (HIF-PH) of cell extract; test: Modifying activity (HIF-PH) of cell extract on HIF substrate (Gal/HIF-1α549-582/VP16 or 19:WT), pVHL capture assay; format: biochemical, mammalian; conditions: for effect of pretreatment of extracts on modifying activity: clotrimazole 10 μM, methyl-viologen 1 mM, NADase 20 mU/ml; for Disruption of HIF-VHL interaction: In-vitro inhibitor; for pVHL binding after treatment of Gal-Hif549-582-VP16 with cell extract in the presence of inhibitor: SDS-PAGE and autoradiography
Procedure: The unlabelled HIF-1α substrate was immunopurified on beads, washed, and aliquots incubated under different test conditions in buffer or cell extract. After further washing, the beads were assayed for ability to interact with 35-S labelled pVHL IVTT (21) which was then visualised by fluorography.
The capture of labelled pVHL by different HIF substrates was monitored after exposure to various test conditions.
We went on to test a series of 2-oxoglutarate analogues which act as competitive inhibitors of this class of enzyme (29) for ability to inhibit HIF-PH as assessed by the ability of cell extracts to modify either HIF polypeptide (19:WT) or a HIF fusion protein (Gal/HIF-1α549-582/VP16) so as to promote pVHL capture. […] In one such experiment the effect of N-oxalylglycine on pVHL capture by a biotinylated HIF polypeptides as substrate was monitored. The WT:19 and 19:Pro564Hyp polypeptides described above were used as substrates. […] The effect of dimethyl-oxalyglycine on HIF-1α expression was also studied. HIF-1α immunoblot analysis of extracts of Hep3B and U2OS cells exposed to dimethyl-oxalylgylcine (0, 0.1 or 1.0 mM) for 6 hours was carried out. […]

HIF-1α/pVHL interaction = biological target: T1, HIF-1α/pVHL interaction (Homo sapiens, UniProt P40337); test: Polypeptide blocking assay of HIF-1α and pVHL.HA IVTT mixture, anti-HA immunoprecipitation; format: binding
T1 construct: made in house; host or cells: TNT rabbit reticulocyte lysate (Promega), in vitro transcription/translation
T1 sequence (P40337 whole entry): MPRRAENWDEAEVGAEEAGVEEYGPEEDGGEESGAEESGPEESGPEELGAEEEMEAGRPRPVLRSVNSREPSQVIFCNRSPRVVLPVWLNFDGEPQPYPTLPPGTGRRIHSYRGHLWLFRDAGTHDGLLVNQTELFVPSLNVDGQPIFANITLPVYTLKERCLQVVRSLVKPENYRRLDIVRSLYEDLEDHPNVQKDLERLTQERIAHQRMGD
Procedure: Further studies were performed using synthetic polypeptides as inhibitors of the HIF-1α/pVHL interaction (23). […] Results for a series of polypeptides derived from this domain are summarized in FIG. 1B and implicate a similar minimal interaction domain. […] This polypeptide comprises HIF-1α polypeptide residues 556 to 574 and its ability to block binding following exposure to a variety of direct oxidation conditions was assessed.
We synthesized a polypeptide (HIF-1α residues 556-574), containing a trans-4-hydroxy-S-proline residue at position 564 (19:Pro564Hyp), since the trans-4-hydroxylation is the commonest enzymatic proline oxidation (25). A polypeptide blocking assay was carried out using the 19:Pro564Hyp modified polypeptide and, as a control, the unmodified polypeptide without the trans-4-hydroxylation (19:WT). The 19:WT polypeptide was either incubated with cell extract before the binding assay or was untreated. The 19:Pro564Hyp polypeptide was added to a mixture of HIF-1α and pVHL-HA IVTTs at a concentration of 1, 0.25, 0.05 or 0.01 μM and the cell extract treated or untreated 19:WT polypeptide at a concentration of 0.5 μM. Interaction of HIF-1α with pVHL was then assayed by anti-HA immunoprecipitation. […] A pVHL capture assay was then carried out using biotinylated synthetic polypeptides. The same polypeptides, 19:Pro564Hyp and 19:WT were assessed for the ability to capture wild type or mutant (Pro86His) pVHL. […] In both cases capture was specific for wild type, as opposed to mutant, pVHL.
• 1. G. L. Semenza, Genes Dev 14, 1983-91. (2000). • 2. N. V. Iyer, et al., Genes Dev. 12, 149-162 (1997). • 3. E. Maltepe, J. V. Schmidt, D. Baunoch, C. A. Bradfield, M. C. Simon, Nature 386, 403-407 (1997). • 4. G. L. Wang, B.-H. Jiang, E. A. Rue, G. L. Semenza, Proc. Natl. Acad. Sci. USA 92, 5510-5514 (1995). • 5. S. Salceda, J. Caro, J. Biol. Chem. 272, 22642-22647 (1997). • 6. L. E. Huang, J. Gu, M. Schau, H. F. Bunn, Proc. Natl. Acad. Sci. USA 95, 7987-7992 (1998). • 7. M. S. Wiesener, et al., Blood 92, 2260-2268 (1998). • 8. P. H. Maxwell, et al., Nature 399, 271-275 (1999). • 9. K. Iwai, et al., Proc. Natl. Acad. Sci. USA 96, 12436-12441 (1999). • 10. J. Lisztwan, G. Imbert, C. Wirbelauer, M. Gstaiger, W. Krek, Genes Dev 13, 1822-33 (1999). • 11. M. E. Cockman, et al., J Biol Chem (2000). • 12. M. Ohh, et al., Nat Cell Biol 2, 423-7. (2000). • 13. T. Kamura, et al., Proc Natl Acad Sci USA 97, 10430-5. (2000). • 14. K. Tanimoto, Y. Makino, T. Pereira, L. Poellinger, Embo J 19, 4298-309. (2000). • 15. M. A. Goldberg, S. P. Dunning, H. F. Bunn, Science 242, 1412-1415 (1988). • 16. G. L. Wang, G. L. Semenza, Blood 82, 3610-3615 (1993). • 17. G. L. Semenza, Cell 98, 281-284 (1999). • 18. Hypoxia (<0.1% oxygen) was obtained in a workstation with O2, CO2 and temperature control (Ruskinn Technologies, Leeds, UK). For hypoxic harvest, buffers were preincubated in the chamber overnight. RCC4-VHL.HA, labelling conditions and co-immunoprecipitation assays have been described previously (11); in the current study 12.5 μM MG132 was used for proteasomal inhibition. For standard harvest, the cells were removed from the chamber after hypoxic exposure, prior to cell lysis. Co-immunoprecipitation assays on all lysates were performed at 4° C. under ambient oxygen conditions. […] When programming in hypoxia, reaction mix was preincubated in the workstation for 10 minutes before addition of the DNA template. […]

HIF = test: Induction of HIF in tissue culture by esterified equivalents; format: cell-based; conditions: In-vivo esterified equivalent
[3] = test system: collagen prolyl-hydroxylase (CPH); conditions: cited from earlier work

N[C@@H](CCC(=O)N[C@@H](CS)C(=O)NCC(=O)O)C(=O)O [glutathione, gamma-glutamyl-cysteinyl-glycine]
inhibition of HIF hydroxylase / HPH [1]: inhibitors of HPH

Clc1ccccc1C(c1ccccc1)(c1ccccc1)n1ccnc1 [clotrimazole, reference compound]
effect of pretreatment of extracts on modifying activity [2]: did not significantly affect activity

O=C(O)c1ccnc(C(=O)O)c1 [2, 4 pyridine dicarboxylic acid]
Disruption of HIF-VHL interaction [2]: Yes

C[C@@H](NC(=O)C(=O)O)C(=O)O [NK82, oxalyl D-alanine]
Disruption of HIF-VHL interaction [2]: No

CC(C)[C@H](NC(=O)C(=O)O)C(=O)O [(S)-oxalovaline]
inhibition of HIF hydroxylase / HPH [1]: little or no activity

34 residue sequence encompassing amino acids 549-582: synthetic polypeptide, HIF-1α residues 549-582
blocking of HIF-1α/pVHL interaction by polypeptide after exposure to cell extract (HIF-1α/pVHL interaction; cell extract supplemented with Fe(II)): blocking activity was strikingly induced | blocking of HIF-1α/pVHL interaction by polypeptide not exposed to cell extract (HIF-1α/pVHL interaction; untreated polypeptide): unable to block interaction

CCOC(=O)c1ccc(O)c(O)c1 [ethyl dihydroxybenzoate]
pVHL binding after treatment of Gal-Hif549-582-VP16 with cell extract in the presence of inhibitor [2]: reduced pVHL binding

COC(=O)CNC(=S)C(=O)OC [Is1]
pVHL binding after treatment of Gal-Hif549-582-VP16 with cell extract in the presence of inhibitor [2]: reduced pVHL binding

O=C(O)CNC(=S)C(=O)O [Is3]
pVHL binding after treatment of Gal-Hif549-582-VP16 with cell extract in the presence of inhibitor [2]: reduced pVHL binding

CCOC(=O)c1ccc(C(=O)OCC)nc1 [2, 5 diethylpyridine dicarboxylate]
Induction of HIF in tissue culture (HIF): No

CCOC(=O)c1cccc(C(=O)OCC)n1 [2, 6 diethylpyridine dicarboxylate]
Induction of HIF in tissue culture (HIF): No

COCCNC(=O)c1ccncc1C(=O)NCCOC [Is8]
pVHL binding after treatment of Gal-Hif549-582-VP16 with cell extract in the presence of inhibitor [2]: reduced pVHL binding

COC(=O)C(=O)NC(C)C(=O)OC [Methylmethoxalyl-D/L-alanine]
Induction of HIF in tissue culture (HIF): No

O=C(O)CNC(=O)C(=O)O [NK87, oxalylglycine]
Disruption of HIF-VHL interaction [2]: Yes | pVHL binding after treatment of Gal-Hif549-582-VP16 with cell extract in the presence of inhibitor [2]: reduced binding of pVHL | pVHL binding after treatment with cell extract in the presence of inhibitor and additional 2-oxoglutarate ([2]; plus additional 2-oxoglutarate): strong binding

CCOC(=O)c1ccnc(C(=O)OCC)c1 [2, 4 diethylpyridine dicarboxylate, 2,4-diethylpyridine dicarboxylate]
inhibition of HIF hydroxylase / HPH [1]: found not to inhibit HPH | Induction of HIF in tissue culture (HIF): No | inhibition of CPH [3]: known CPH inhibitor

C[n+]1ccc(-c2cc[n+](C)cc2)cc1 [methyl-viologen, reference compound]
effect of pretreatment of extracts on modifying activity [2]: did not significantly affect activity

CC(C)[C@H](NC(=O)C(=O)O)C(=O)O [NK80]
Disruption of HIF-VHL interaction [2]: No

CC(NC(=O)C(=O)O)C(=O)O (racemic) [(RS)-N-oxaloalanine]
inhibition of CPH [3]: poor inhibitor

C[C@@H](NC(=O)C(=O)O)C(=O)O [N-oxalyl-2R-alanine]
inhibition of modifying activity of cell extract on 19:WT (pVHL capture) ([2]; N-oxalylglycine 0.2-1 mM, overcome by 5 mM 2-oxoglutarate): not | inhibition of HIF hydroxylase / HPH [1]: also an inhibitor

C[C@H](NC(=O)C(=O)O)C(=O)O [NK81, oxalyl L-alanine]
Disruption of HIF-VHL interaction [2]: Yes

O=C(NO)c1ccccc1 [benzohydroxamic acid]
pVHL binding after treatment of Gal-Hif549-582-VP16 with cell extract in the presence of inhibitor [2]: reduced pVHL binding
